Reference: ChEMBL document CHEMBL2321853, “Novel acylethanolamide derivatives that modulate body weight through enhancement of hypothalamic pro-opiomelanocortin (POMC) and/or decreased neuropeptide Y (NPY)” (J Med Chem, 2013)
Activity calls are given as the source filed them. No cut-off for these calls is given here.

Columns and labels:
[1] = target: Cannabinoid receptor 2 (Homo sapiens) (UniProt P34972); experiment: Displacement of [3H]WIN-55,212-2 from human recombinant CB2 receptor expressed in CHO-K1 cells at 10 uM relative to control; type: cell-based
Cannabinoid receptor 2 (Homo sapiens), sequence (P34972 whole entry): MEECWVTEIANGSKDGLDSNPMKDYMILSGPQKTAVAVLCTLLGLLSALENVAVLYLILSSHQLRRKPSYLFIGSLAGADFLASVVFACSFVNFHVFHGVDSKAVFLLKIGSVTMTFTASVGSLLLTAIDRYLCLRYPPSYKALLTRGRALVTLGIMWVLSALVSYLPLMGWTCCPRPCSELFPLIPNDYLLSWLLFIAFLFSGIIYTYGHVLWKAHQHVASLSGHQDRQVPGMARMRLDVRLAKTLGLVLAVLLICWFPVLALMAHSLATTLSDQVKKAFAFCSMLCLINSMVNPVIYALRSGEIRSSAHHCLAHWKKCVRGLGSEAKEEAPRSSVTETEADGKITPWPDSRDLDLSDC

Mus musculus [2] = experiment: Antiobesity activity in Sabra mouse assessed as change in body weight at 1 mg/kg, ip administered on day 8, 9, 10, 11, 14, 18, 24 and 32 measured on day 39 relative to control; type: functional; settings: route intraperitoneal
Mus musculus [3] = experiment: Antiobesity activity in Sabra mouse assessed as change in body weight at 1 mg/kg, ip administered on day 8, 9, 10, 11, 14, 18, 24 and 32 measured on day 30 relative to control; type: functional; settings: route intraperitoneal
Mus musculus [4] = experiment: Antiobesity activity in Sabra mouse assessed as change in food consumption at 1 mg/kg, ip administered on day 8, 9, 10, 11, 14, 18, 24 and 32 measured after 6 weeks relative to control; type: functional; settings: route intraperitoneal
Hypothalamus [5] = experiment: Effect on CAMKK2 gene expression in Sabra mouse hypothalamus assessed as change in mRNA level at 1 mg/kg, ip administered on day 8, 9, 10, 11, 14, 18, 24 and 32 by RT-PCR analysis relative to GAPDH; type: functional; settings: route intraperitoneal
Mus musculus [6] = experiment: Antiobesity activity in Sabra mouse assessed as change in body weight at 1 mg/kg, ip administered on day 8, 9, 10, 11, 14, 18, 24 and 32 measured on day 9 relative to control; type: functional; settings: route intraperitoneal
Mus musculus [7] = experiment: Antiobesity activity in Sabra mouse assessed as change in food consumption at 1 mg/kg, ip administered on day 8, 9, 10, 11, 14, 18, 24 and 32 measured after 5 weeks relative to control; type: functional; settings: route intraperitoneal
Hypothalamus [8] = experiment: Effect on POMC gene expression in Sabra mouse hypothalamus assessed as change in mRNA level at 1 mg/kg, ip administered on day 8, 9, 10, 11, 14, 18, 24 and 32 by RT-PCR analysis relative to GAPDH; type: functional; settings: route intraperitoneal
[9] = target: Cannabinoid receptor 1 (Homo sapiens) (UniProt P21554); experiment: Displacement of [3H]SR141716A from human CB1 receptor expressed in rat Chem-1 cell membrane at 10 uM relative to control; type: cell membranes
Cannabinoid receptor 1 (Homo sapiens), sequence (P21554 whole entry): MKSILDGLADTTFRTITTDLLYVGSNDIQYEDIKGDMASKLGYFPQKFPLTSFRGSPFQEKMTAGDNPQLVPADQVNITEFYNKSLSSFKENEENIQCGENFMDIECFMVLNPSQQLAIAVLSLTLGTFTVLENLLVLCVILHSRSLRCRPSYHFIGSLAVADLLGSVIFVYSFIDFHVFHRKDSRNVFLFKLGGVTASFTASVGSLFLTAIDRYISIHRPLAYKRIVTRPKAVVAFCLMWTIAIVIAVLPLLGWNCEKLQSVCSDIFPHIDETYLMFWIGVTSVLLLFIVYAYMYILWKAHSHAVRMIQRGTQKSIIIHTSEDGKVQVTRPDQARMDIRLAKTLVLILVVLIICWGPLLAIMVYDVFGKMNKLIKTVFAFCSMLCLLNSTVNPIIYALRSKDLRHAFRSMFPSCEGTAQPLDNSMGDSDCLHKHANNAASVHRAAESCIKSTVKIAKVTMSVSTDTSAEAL

Mus musculus [10] = experiment: Antiobesity activity in Sabra mouse assessed as change in body weight at 1 mg/kg, ip administered on day 8, 9, 10, 11, 14, 18, 24 and 32 measured on day 35 relative to control; type: functional; settings: route intraperitoneal
Mus musculus [11] = experiment: Antiobesity activity in Sabra mouse assessed as change in food consumption at 1 mg/kg, ip administered on day 8, 9, 10, 11, 14, 18, 24 and 32 measured after 2 weeks relative to control; type: functional; settings: route intraperitoneal
Mus musculus [12] = experiment: Antiobesity activity in Sabra mouse assessed as change in body weight at 1 mg/kg, ip administered on day 8, 9, 10, 11, 14, 18, 24 and 32 measured on day 25 relative to control; type: functional; settings: route intraperitoneal
Mus musculus [13] = experiment: Antiobesity activity in Sabra mouse assessed as change in food consumption at 1 mg/kg, ip administered on day 8, 9, 10, 11, 14, 18, 24 and 32 measured after 3 weeks relative to control; type: functional; settings: route intraperitoneal
Hypothalamus [14] = experiment: Effect on NPY gene expression in Sabra mouse hypothalamus assessed as change in mRNA level at 1 mg/kg, ip administered on day 8, 9, 10, 11, 14, 18, 24 and 32 by RT-PCR analysis relative to GAPDH; type: functional; settings: route intraperitoneal
Hypothalamus [15] = experiment: Effect on FAAH gene expression in Sabra mouse hypothalamus assessed as change in mRNA level at 1 mg/kg, ip administered on day 8, 9, 10, 11, 14, 18, 24 and 32 by RT-PCR analysis relative to GAPDH; type: functional; settings: route intraperitoneal
Hypothalamus [16] = experiment: Effect on 5HT1A gene expression in Sabra mouse hypothalamus assessed as change in mRNA level at 1 mg/kg, ip administered on day 8, 9, 10, 11, 14, 18, 24 and 32 by RT-PCR analysis relative to GAPDH; type: functional; settings: route intraperitoneal
Mus musculus [17] = experiment: Antiobesity activity in Sabra mouse assessed as change in body weight at 1 mg/kg, ip administered on day 8, 9, 10, 11, 14, 18, 24 and 32 measured on day 21 relative to control; type: functional; settings: route intraperitoneal
Mus musculus [18] = experiment: Increase in motor activity Sabra mouse at 1 mg/kg, ip administered on day 8, 9, 10, 11, 14, 18, 24 and 32 measured on day 14 by open field test; type: functional, organism-based; design: dose 1 mg/kg
Mus musculus [19] = experiment: Antiobesity activity in Sabra mouse assessed as change in body weight at 1 mg/kg, ip administered on day 8, 9, 10, 11, 14, 18, 24 and 32 measured on day 14 relative to control; type: functional; settings: route intraperitoneal
Mus musculus [20] = experiment: Antiobesity activity in Sabra mouse assessed as change in body weight at 1 mg/kg, ip administered on day 8, 9, 10, 11, 14, 18, 24 and 32 measured on day 4 relative to control; type: functional; settings: route intraperitoneal
Mus musculus [21] = experiment: Antiobesity activity in Sabra mouse assessed as change in food consumption at 1 mg/kg, ip administered on day 8, 9, 10, 11, 14, 18, 24 and 32 measured after 4 weeks relative to control; type: functional; settings: route intraperitoneal
[22] = target: T1, Peroxisome proliferator-activated receptor alpha (Homo sapiens) (UniProt Q07869); experiment: Binding affinity to human recombinant PPARalpha expressed in Escherichia coli at 10 uM for 16 hrs by spectrofluorimetric analysis relative to control
T1 sequence (whole entry): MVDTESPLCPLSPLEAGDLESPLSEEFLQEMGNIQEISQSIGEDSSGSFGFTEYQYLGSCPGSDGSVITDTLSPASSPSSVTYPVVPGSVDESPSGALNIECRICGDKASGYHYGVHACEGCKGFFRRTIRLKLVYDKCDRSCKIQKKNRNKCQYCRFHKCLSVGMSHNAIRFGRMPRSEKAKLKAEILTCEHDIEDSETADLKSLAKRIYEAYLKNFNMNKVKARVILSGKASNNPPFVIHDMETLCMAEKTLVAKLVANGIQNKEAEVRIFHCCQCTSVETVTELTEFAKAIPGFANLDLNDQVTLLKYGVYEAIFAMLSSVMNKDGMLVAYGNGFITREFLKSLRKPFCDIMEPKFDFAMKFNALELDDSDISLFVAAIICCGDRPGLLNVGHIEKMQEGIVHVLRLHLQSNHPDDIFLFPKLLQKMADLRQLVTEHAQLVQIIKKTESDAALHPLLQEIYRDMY

Hypothalamus [23] = experiment: Effect on CART gene expression in Sabra mouse hypothalamus assessed as change in mRNA level at 1 mg/kg, ip administered on day 8, 9, 10, 11, 14, 18, 24 and 32 by RT-PCR analysis relative to GAPDH; type: functional; settings: route intraperitoneal
[24] = target: T2, Fatty-acid amide hydrolase 1 (Rattus norvegicus) (UniProt P97612); experiment: Inhibition of rat brain FAAH using [3H]anandamide as substrate at 10 uM preincubated for 15 mins before substrate addition relative to control
T2 sequence (whole entry): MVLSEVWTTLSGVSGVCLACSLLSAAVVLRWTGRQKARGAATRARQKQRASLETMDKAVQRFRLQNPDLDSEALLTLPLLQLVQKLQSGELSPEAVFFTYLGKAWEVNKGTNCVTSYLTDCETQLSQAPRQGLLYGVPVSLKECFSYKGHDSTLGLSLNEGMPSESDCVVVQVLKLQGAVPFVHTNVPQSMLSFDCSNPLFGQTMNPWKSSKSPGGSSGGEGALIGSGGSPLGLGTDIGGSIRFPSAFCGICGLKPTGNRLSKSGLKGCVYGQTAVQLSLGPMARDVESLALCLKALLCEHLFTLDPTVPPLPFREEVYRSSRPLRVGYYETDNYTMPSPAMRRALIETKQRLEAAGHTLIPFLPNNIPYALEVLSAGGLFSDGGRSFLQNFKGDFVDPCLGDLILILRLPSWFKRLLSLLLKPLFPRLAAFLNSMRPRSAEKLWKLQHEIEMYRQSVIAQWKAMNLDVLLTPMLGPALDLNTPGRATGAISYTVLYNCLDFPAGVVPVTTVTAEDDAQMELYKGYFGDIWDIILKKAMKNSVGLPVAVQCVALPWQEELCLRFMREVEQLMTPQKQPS

[25] = target: Transient receptor potential cation channel subfamily V member 1 (Rattus norvegicus) (UniProt O35433); experiment: Displacement of [3H]resiniferatoxin from TRPV1 receptor in Wistar rat spinal cord at 10 uM relative to control
Transient receptor potential cation channel subfamily V member 1 (Rattus norvegicus), sequence (O35433 whole entry): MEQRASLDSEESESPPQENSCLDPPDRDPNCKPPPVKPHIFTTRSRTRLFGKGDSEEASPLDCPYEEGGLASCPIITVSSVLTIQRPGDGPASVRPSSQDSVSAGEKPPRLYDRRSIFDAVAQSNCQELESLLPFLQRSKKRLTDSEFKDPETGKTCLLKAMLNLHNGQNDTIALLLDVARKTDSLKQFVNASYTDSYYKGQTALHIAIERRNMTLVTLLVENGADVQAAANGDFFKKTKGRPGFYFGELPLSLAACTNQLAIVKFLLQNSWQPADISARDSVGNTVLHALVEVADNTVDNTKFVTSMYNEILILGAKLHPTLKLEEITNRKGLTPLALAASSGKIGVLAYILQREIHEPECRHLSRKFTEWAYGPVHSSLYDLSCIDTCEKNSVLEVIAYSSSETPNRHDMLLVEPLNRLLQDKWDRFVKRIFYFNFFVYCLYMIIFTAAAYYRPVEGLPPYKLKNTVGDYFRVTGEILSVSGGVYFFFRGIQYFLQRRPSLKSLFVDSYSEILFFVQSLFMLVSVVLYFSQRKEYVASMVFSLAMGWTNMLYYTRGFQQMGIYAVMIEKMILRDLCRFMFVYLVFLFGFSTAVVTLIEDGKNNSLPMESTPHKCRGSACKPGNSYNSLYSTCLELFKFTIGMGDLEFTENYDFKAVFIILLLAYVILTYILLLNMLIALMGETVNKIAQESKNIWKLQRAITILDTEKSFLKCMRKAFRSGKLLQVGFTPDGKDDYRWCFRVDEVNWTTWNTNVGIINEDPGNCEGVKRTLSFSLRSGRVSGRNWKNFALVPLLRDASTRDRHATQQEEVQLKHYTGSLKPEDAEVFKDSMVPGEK

Row | Compound | inhibition [1] [%] | Activity (Mus musculus [2]) [%] | Activity (Mus musculus [3]) [%] | Activity (Mus musculus [4]) [%] | Activity (Hypothalamus [5]) [%] | Activity (Mus musculus [6]) [%] | Activity (Mus musculus [7]) [%] | Activity (Hypothalamus [8]) [%] | inhibition [9] [%] | Activity (Mus musculus [10]) [%] | Activity (Mus musculus [11]) [%] | Activity (Mus musculus [12]) [%] | Activity (Mus musculus [13]) [%] | Activity (Hypothalamus [14]) [%] | Activity (Hypothalamus [15]) [%] | Activity (Hypothalamus [16]) [%] | Activity (Mus musculus [17]) [%] | Activity (Mus musculus [19]) [%] | Activity (Mus musculus [20]) [%] | Activity (Mus musculus [21]) [%] | also measured
1 | CCCCCCCCCCCCCCCC(=O)N[C@H](CO)C(C)C | 0 | -6.7 | -7.1 | 81.4 | 15 | -2.1 | 97.4 | 2 | 21 | -8.5 | 97 | -4.9 | 96.8 | -52 | 15 | -1 | 3 | -2.2 | 1.9 | 85.9 | Activity (Mus musculus [18]): inactive; Activity [22]: 2%; Activity (Hypothalamus [23]): -13%
2 | CCCCCCCC/C=C/CCCCCCCC(=O)N[C@@H](CO)C(C)C | 0 | -1 | 0.2 | 109.1 | 8 | -1.7 | 111.4 | 5 | 7 | 1.4 | 102.9 | -1.1 | 112 | -9 | -46 | -18 | -1 | -0.3 | -2.3 | 108 | inhibition [24]: 13%; Activity (Mus musculus [18]): inactive; Activity [22]: 0%; Activity (Hypothalamus [23]): 25%
3 | CCCCCCCCCCCCCCCCCC(=O)N[C@H](CO)C(C)C | 6 | -6 | -5.8 | 82.5 | -14 | 0.9 | 100.5 | 43 | 6 | -7.8 | 96 | -5.3 | 93.8 | -39 | -26 | -16 | -1.8 | -1.4 | 2.1 | 85.7 | inhibition [25]: -9%; inhibition [24]: 0%; Activity (Mus musculus [18]): inactive; Activity [22]: 0%; Activity (Hypothalamus [23]): 2%
4 | CCCCCCCC/C=C\CCCCCCCC(=O)N[C@@H](CO)C(C)C | 5 | -6.7 | -4.7 | 77.3 | -2 | -0.8 | 80.6 | 31 | 36 | -6 | 79.4 | -3.3 | 78.1 | 8 | -28 | 17 | -1.7 | -3.1 | 0.4 | 81.8 | inhibition [25]: 3%; inhibition [24]: 8%; Activity (Mus musculus [18]): Active; Activity [22]: 0%; Activity (Hypothalamus [23]): 44%
5 | CCCCCCCC/C=C/CCCCCCCC(=O)N[C@H](CO)C(C)C | 5 | 0 | 0.2 | 104.5 | 62 | -0.1 | 109.2 | 10 | 8 | 1.6 | 98.5 | 0.7 | 108.1 | 69 | 15 | -9 | -0.1 | 1 | 3.1 | 104.9 | inhibition [25]: 6%; inhibition [24]: 7%; Activity [22]: 0%; Activity (Hypothalamus [23]): -11%
